Columns and labels:
Assay in all cases: cells
Parameters in all cases: Cell growth inhibition, sulforhodamine B total protein staining
RD = conditions: Homo sapiens, RD; 72 h growth; read-out: Cell growth inhibition IC50/µM
Outline: (§1)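 72 h exposure of a 94-cell-line panel to Glupin; growth measured by sulforhodamine B total-protein staining after TCA fixation (10% adherent, 50% suspension/semi-adherent, 1 h at 4 °C). IC50 derived from growth inhibition.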

SW620 = conditions: Homo sapiens, SW-620; 72 h growth; read-out: Cell growth inhibition IC50/µM
Outline: as §1

CALU6 = conditions: Homo sapiens, Calu-6; 72 h growth; read-out: Cell growth inhibition IC50/µM
Outline: as §1

CLS439 = conditions: 72 h growth; read-out: Cell growth inhibition IC50/µM
Outline: as §1

SF268 = conditions: Homo sapiens, SF-268; 72 h growth; read-out: Cell growth inhibition IC50/µM
Outline: as §1

COLO205 = conditions: Homo sapiens, COLO 205; 72 h growth; read-out: Cell growth inhibition IC50/µM
Outline: as §1

MCF7 = conditions: Homo sapiens, MCF7; 72 h growth; read-out: Cell growth inhibition IC50/µM
Outline: as §1

T24 = conditions: Homo sapiens, T-24; 72 h growth; read-out: Cell growth inhibition IC50/µM
Outline: as §1

BXPC3 = conditions: Homo sapiens, BXPC-3; 72 h growth; read-out: Cell growth inhibition IC50/µM
Outline: as §1

U2OS = conditions: Homo sapiens, U2OS; 72 h growth; read-out: Cell growth inhibition IC50/µM
Outline: as §1

MDAMB468 = conditions: Homo sapiens, MDA-MB-468; 72 h growth; read-out: Cell growth inhibition IC50/µM
Outline: as §1

RAMOS = conditions: Homo sapiens, Ramos; 72 h growth; read-out: Cell growth inhibition IC50/µM
Outline: as §1

NCIH460 = conditions: Homo sapiens, NCI-H460; 72 h growth; read-out: Cell growth inhibition IC50/µM
Outline: as §1

MDAMB435 = conditions: Homo sapiens, MDA-MB-435; 72 h growth; read-out: Cell growth inhibition IC50/µM
Outline: as §1

MHHES1 = conditions: Homo sapiens, MHH-ES-1; 72 h growth; read-out: Cell growth inhibition IC50/µM
Outline: as §1

MIAPACA2 = conditions: Homo sapiens, MIA PaCa-2; 72 h growth; read-out: Cell growth inhibition IC50/µM
Outline: as §1

K562 = conditions: Homo sapiens, K562; 72 h growth; read-out: Cell growth inhibition IC50/µM
Outline: as §1

SAOS2 = conditions: Homo sapiens, SAOS-2; 72 h growth; read-out: Cell growth inhibition IC50/µM
Outline: as §1

RDES = conditions: RD-ES; 72 h growth; read-out: Cell growth inhibition IC50/µM
Outline: as §1

HCT15 = conditions: Homo sapiens, HCT-15; 72 h growth; read-out: Cell growth inhibition IC50/µM
Outline: as §1

MT3 = conditions: MT-3; 72 h growth; read-out: Cell growth inhibition IC50/µM
Outline: as §1

THP1 = conditions: Homo sapiens, THP-1; 72 h growth; read-out: Cell growth inhibition IC50/µM
Outline: as §1

SUDHL6 = conditions: Homo sapiens, SU-DHL-6; 72 h growth; read-out: Cell growth inhibition IC50/µM
Outline: as §1

IC50 (SW620): > 30 µM
IC50 (CALU6): 0.538 µM
IC50 (COLO205): 3.73 µM
IC50 (MCF7): > 30 µM
IC50 (T24): 0.243 µM
IC50 (BXPC3): 0.591 µM
IC50 (U2OS): 0.502 µM
IC50 (MDAMB468): 4.32 µM
IC50 (RAMOS): 0.212 µM
IC50 (MDAMB435): 0.513 µM
IC50 (MIAPACA2): 0.061 µM
IC50 (K562): 0.137 µM
IC50 (HCT15): 0.407 µM
IC50 (THP1): > 30 µM
IC50 (SUDHL6): 0.092 µM
SMILES: CCOC(=O)Cn1c2c(c3ccccc31)C[C@@H]1C[C@H]2C(OC)CN1C(=O)c1cccnc1SC (single isomer, unassigned; (+)) [(+)-5a, Glupin]
IC50 (RD): 0.842 µM
IC50 (CLS439): 0.24 µM
IC50 (SF268): 0.37 µM
IC50 (NCIH460): 0.572 µM
IC50 (MHHES1): 1.49 µM
IC50 (SAOS2): > 30 µM
IC50 (RDES): 3.71 µM
IC50 (MT3): 2.54 µM

Reference: publication PMC6900016, “Synthesis of Indomorphan Pseudo‐Natural Product Inhibitors of Glucose Transporters GLUT‐1 and ‐3” (Angewandte Chemie (International Ed. in English), 2019)
